# Results taken from article PMC7914897, “Cytotoxic Potential of a-Azepano- and 3-Amino-3,4-SeCo-Triterpenoids” (International Journal of Molecular Sciences, 2021).
# How the values were obtained:
# HL-60(TB) (Leukemia) = assay: NCI-60 screen (SRB, 48 h); format: cell-based; conditions: Homo sapiens
# LOX IMVI (Melanoma) = assay: NCI-60 screen (SRB, 48 h); format: cell-based; conditions: Homo sapiens
# OVCAR-4 (Ovarian cancer) = assay: NCI-60 screen (SRB, 48 h); format: cell-based; conditions: Homo sapiens
# BT-549 (Breast cancer) = assay: NCI-60 screen (SRB, 48 h); format: cell-based; conditions: Homo sapiens
# NSC lung cancer subpanel = assay: NCI-60 screen, subpanel; conditions: Homo sapiens
# Colon Cancer subpanel = assay: NCI-60 screen, subpanel; conditions: Homo sapiens
# K-562 (Leukemia) = assay: NCI-60 screen (SRB, 48 h); conditions: Homo sapiens
# HOP-92 (NSC lung cancer) = assay: NCI-60 screen (SRB, 48 h); conditions: Homo sapiens
# [1] = test system: NCI-H522 (NSC lung cancer); assay: NCI-60 screen (SRB, 48 h); conditions: Homo sapiens
# HCT-116 (Colon cancer) = assay: NCI-60 screen (SRB, 48 h); conditions: Homo sapiens
# HCT-15 (Colon cancer) = assay: NCI-60 screen (SRB, 48 h); conditions: Homo sapiens
# HT29 (Colon cancer) = assay: NCI-60 screen (SRB, 48 h); conditions: Homo sapiens
# KM12 (Colon cancer) = assay: NCI-60 screen (SRB, 48 h); conditions: Homo sapiens
# SF-295 (CNS cancer) = assay: NCI-60 screen (SRB, 48 h); conditions: Homo sapiens
# UACC-257 (Melanoma) = assay: NCI-60 screen (SRB, 48 h); conditions: Homo sapiens
# IGROV1 (Ovarian cancer) = assay: NCI-60 screen (SRB, 48 h); conditions: Homo sapiens
# [2] = test system: NCI/ADR-RES (Ovarian cancer); assay: NCI-60 screen (SRB, 48 h); conditions: Homo sapiens
# A498 (Renal cancer) = assay: NCI-60 screen (SRB, 48 h); conditions: Homo sapiens
# RXF 393 (Renal cancer) = assay: NCI-60 screen (SRB, 48 h); conditions: Homo sapiens
# UO-31 (Renal cancer) = assay: NCI-60 screen (SRB, 48 h); conditions: Homo sapiens
# DU-145 (Prostate cancer) = assay: NCI-60 screen (SRB, 48 h); conditions: Homo sapiens
# T-47D (Breast cancer) = assay: NCI-60 screen (SRB, 48 h); conditions: Homo sapiens, T47D
smiles,measurement,setting,value
C=C(C)[C@@H]1CC[C@]2(C)[C@H](C=CC3=C4C[C@@](C)(CO)CC[C@]4(C)CC[C@]32C)[C@@]1(C)CCCN [Compound 20],GI50,HL-60(TB) (Leukemia),1.58 µM
same,IC (TGI),HL-60(TB) (Leukemia); 48 h,3.62 µM
same,IC (TGI),LOX IMVI (Melanoma); 48 h,2.7 µM
same,activity at 10 µM,"LOX IMVI (Melanoma); 48 h, 1 dose 10 µM, read-out: Growth % of the Most Sensitive Cell Lines",-100%
same,GI50,LOX IMVI (Melanoma); read-out: GI50,1.37 µM
same,CC50,LOX IMVI (Melanoma); read-out: LC50 (the source's name),5.31 µM
same,IC (TGI),"OVCAR-4 (Ovarian cancer); OVCAR-4, 48 h",3.09 µM
same,GI50,"OVCAR-4 (Ovarian cancer); OVCAR-4, read-out: GI50",1.53 µM
same,CC50,"OVCAR-4 (Ovarian cancer); OVCAR-4, read-out: LC50 (the source's name)",6.23 µM
same,GI50,BT-549 (Breast cancer); BT-549,1.64 µM
same,IC (TGI),"BT-549 (Breast cancer); BT-549, 48 h",3.07 µM
same,CC50,"BT-549 (Breast cancer); BT-549, read-out: LC50 (the source's name)",5.78 µM
same,IC (TGI),"NSC lung cancer subpanel; 48 h, read-out: TGI MG_MID",3.38 µM
same,GI50,NSC lung cancer subpanel; read-out: GI50 MG_MID,1.71 µM
same,CC50,NSC lung cancer subpanel; read-out: LC50 MG_MID,6.24 µM
same,IC (TGI),"Colon Cancer subpanel; 48 h, read-out: TGI MG_MID",2.98 µM
same,GI50,Colon Cancer subpanel; read-out: GI50 MG_MID,1.47 µM
same,CC50,Colon Cancer subpanel; read-out: LC50 MG_MID,5.96 µM
same,GI50,K-562 (Leukemia); K562,1.8 µM
same,IC (TGI),"K-562 (Leukemia); K562, 48 h, read-out: TGI",5.04 µM
same,CC50,"K-562 (Leukemia); K562, read-out: LC50",> 100 µM
same,GI50,HOP-92 (NSC lung cancer); HOP-92,1.48 µM
same,IC (TGI),"HOP-92 (NSC lung cancer); HOP-92, 48 h, read-out: TGI",3.21 µM
same,CC50,"HOP-92 (NSC lung cancer); HOP-92, read-out: LC50",6.96 µM
same,GI50,[1]; NCI-H522,1.83 µM
same,IC (TGI),"[1]; NCI-H522, 48 h, read-out: TGI",3.63 µM
same,GI50,HCT-116 (Colon cancer); HCT-116,1.69 µM
same,IC (TGI),"HCT-116 (Colon cancer); HCT-116, 48 h, read-out: TGI",3.21 µM
same,CC50,"HCT-116 (Colon cancer); HCT-116, read-out: LC50",6.08 µM
same,GI50,HCT-15 (Colon cancer); HCT-15,1.53 µM
same,IC (TGI),"HCT-15 (Colon cancer); HCT-15, 48 h, read-out: TGI",2.92 µM
same,CC50,"HCT-15 (Colon cancer); HCT-15, read-out: LC50",5.56 µM
same,GI50,HT29 (Colon cancer); HT-29,1.63 µM
same,IC (TGI),"HT29 (Colon cancer); HT-29, 48 h, read-out: TGI",3.28 µM
same,CC50,"HT29 (Colon cancer); HT-29, read-out: LC50",6.59 µM
same,GI50,KM12 (Colon cancer); KM12,1.6 µM
same,IC (TGI),"KM12 (Colon cancer); KM12, 48 h, read-out: TGI",3.02 µM
same,CC50,"KM12 (Colon cancer); KM12, read-out: LC50",5.67 µM
same,GI50,SF-295 (CNS cancer); SF-295,1.78 µM
same,IC (TGI),"SF-295 (CNS cancer); SF-295, 48 h, read-out: TGI",3.21 µM
same,CC50,"SF-295 (CNS cancer); SF-295, read-out: LC50",5.79 µM
same,GI50,UACC-257 (Melanoma); UACC-257,1.82 µM
same,IC (TGI),"UACC-257 (Melanoma); UACC-257, 48 h, read-out: TGI",3.65 µM
same,CC50,"UACC-257 (Melanoma); UACC-257, read-out: LC50",7.14 µM
same,GI50,IGROV1 (Ovarian cancer); IGROV-1,1.5 µM
same,IC (TGI),"IGROV1 (Ovarian cancer); IGROV-1, 48 h, read-out: TGI",2.95 µM
same,CC50,"IGROV1 (Ovarian cancer); IGROV-1, read-out: LC50",5.8 µM
same,GI50,[2],1.74 µM
same,IC (TGI),"[2]; 48 h, read-out: TGI",3.37 µM
same,CC50,[2]; read-out: LC50,6.54 µM
same,GI50,A498 (Renal cancer); A498,1.54 µM
same,IC (TGI),"A498 (Renal cancer); A498, 48 h, read-out: TGI",2.9 µM
same,CC50,"A498 (Renal cancer); A498, read-out: LC50",5.44 µM
same,GI50,RXF 393 (Renal cancer); RXF 393,1.62 µM
same,IC (TGI),"RXF 393 (Renal cancer); RXF 393, 48 h, read-out: TGI",3.07 µM
same,CC50,"RXF 393 (Renal cancer); RXF 393, read-out: LC50",5.81 µM
same,GI50,UO-31 (Renal cancer); UO-31,1.34 µM
same,IC (TGI),"UO-31 (Renal cancer); UO-31, 48 h, read-out: TGI",2.65 µM
same,CC50,"UO-31 (Renal cancer); UO-31, read-out: LC50",5.24 µM
same,GI50,DU-145 (Prostate cancer); DU-145,1.72 µM
same,IC (TGI),"DU-145 (Prostate cancer); DU-145, 48 h, read-out: TGI",3.15 µM
same,CC50,"DU-145 (Prostate cancer); DU-145, read-out: LC50",5.78 µM
same,GI50,T-47D (Breast cancer),1.67 µM
same,IC (TGI),"T-47D (Breast cancer); 48 h, read-out: TGI",3.45 µM
